Data published in PubChem BioAssay AID2060338 (Molecular Pharmacology Branch, DTP, NCI, 2025).
pIC50: −log10 of the molar value. “And” between values parts separate entries of the source, which are not always exact repeats. Equal values may be shown once.

System: 556581-035-R-J1-PDC spheroids with HUVEC/MSC, viability
Assay: Anticancer human tumor 556581-035-R-J1-PDC patient-derived ovarian carcinoma cell line growth inhibition [IpAb]
Settings: for viability, T/C: stronger effect = lower value
Method in brief: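 Multi-cell spheroids of 60% tumour cells, 25% HUVEC and 15% MSC in ultra-low-attachment U-bottom wells, treated with agents combined with ipatasertib or abemaciclib. Half-log ranges top out near clinical Cmax, or 10 microM when Cmax is unknown.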

[1] = curve of first compound, second compound 0.1 µM
[2] = curve of first compound, second compound 0.316 µM
[3] = curve of first compound, second compound 1 µM
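Further: spheroids exposed to compounds for 7 days before readout.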

`Cn1cnc2c(F)c(Nc3ccc(Br)cc3Cl)c(C(=O)NOCCO)cc21` + CCN1CCN(Cc2ccc(Nc3ncc(F)c(-c4cc(F)c5nc(C)n(C(C)C)c5c4)n3)nc2)CC1 was tested. Which pIC50 (curve of first compound, second compound 0.01 µM) did it give?
Its pIC50 is 6.06.

What about the pIC50 (curve of first compound, second compound 0.0316 µM) of the same molecule?
The pIC50 was 5.95.

What about the pIC50 [1] of the same molecule?
Its pIC50 is 6.06.

And the pIC50 [2]?
Its pIC50 is 5.93.

And the pIC50 [3]?
The pIC50 was 5.92.

And the viability, T/C (second compound 0.01 µM, first compound 0.00949 µM)?
The viability, T/C was 118%.

What about the viability, T/C (second compound 0.01 µM, first compound 0.03 µM) of the same molecule?
The viability, T/C was 111%.

And the viability, T/C (second compound 0.01 µM, first compound 0.0949 µM)?
The viability, T/C was 108%.

What about the viability, T/C (second compound 0.01 µM, first compound 0.3 µM) of the same molecule?
Its viability, T/C is 78.7%.

And the viability, T/C (second compound 0.01 µM, first compound 0.949 µM)?
Its viability, T/C is 49%.

What about the viability, T/C (second compound 0.01 µM, first compound 3 µM) of the same molecule?
Its viability, T/C is 18.8%.

And the viability, T/C (second compound 0.0316 µM, first compound 0.00949 µM)?
The viability, T/C was 102%.

What about the viability, T/C (second compound 0.0316 µM, first compound 0.03 µM) of the same molecule?
Its viability, T/C is 121%.

What about the viability, T/C (second compound 0.0316 µM, first compound 0.0949 µM) of the same molecule?
Its viability, T/C is 110%.

What about the viability, T/C (second compound 0.0316 µM, first compound 0.3 µM) of the same molecule?
The viability, T/C was 73.4%.

And the viability, T/C (second compound 0.0316 µM, first compound 0.949 µM)?
The viability, T/C was 62.4%.

What about the viability, T/C (second compound 0.0316 µM, first compound 3 µM) of the same molecule?
The viability, T/C was 14.3%.

And the viability, T/C (second compound 0.1 µM, first compound 0.00949 µM)?
Its viability, T/C is 97.7%.

And the viability, T/C (second compound 0.1 µM, first compound 0.03 µM)?
The viability, T/C was 95.1%.

And the viability, T/C (second compound 0.1 µM, first compound 0.0949 µM)?
Its viability, T/C is 98.6%.

And the viability, T/C (second compound 0.1 µM, first compound 0.3 µM)?
Its viability, T/C is 84%.

And the viability, T/C (second compound 0.1 µM, first compound 0.949 µM)?
Its viability, T/C is 47.4%.

What about the viability, T/C (second compound 0.1 µM, first compound 3 µM) of the same molecule?
Its viability, T/C is 17.8%.

What about the viability, T/C (second compound 0.316 µM, first compound 0.00949 µM) of the same molecule?
The viability, T/C was 102%.

And the viability, T/C (second compound 0.316 µM, first compound 0.03 µM)?
Its viability, T/C is 102%.

What about the viability, T/C (second compound 0.316 µM, first compound 0.0949 µM) of the same molecule?
The viability, T/C was 104%.

What about the viability, T/C (second compound 0.316 µM, first compound 0.3 µM) of the same molecule?
Its viability, T/C is 87.1%.

What about the viability, T/C (second compound 0.316 µM, first compound 0.949 µM) of the same molecule?
Its viability, T/C is 56.8%.

What about the viability, T/C (second compound 0.316 µM, first compound 3 µM) of the same molecule?
The viability, T/C was 22.4%.

What about the viability, T/C (second compound 1 µM, first compound 0.00949 µM) of the same molecule?
Its viability, T/C is 48%.

What about the viability, T/C (second compound 1 µM, first compound 0.03 µM) of the same molecule?
The viability, T/C was 62%.

And the viability, T/C (second compound 1 µM, first compound 0.0949 µM)?
The viability, T/C was 59%.

And the viability, T/C (second compound 1 µM, first compound 0.3 µM)?
The viability, T/C was 63.7%.

And the viability, T/C (second compound 1 µM, first compound 0.949 µM)?
The viability, T/C was 58.6%.

What about the viability, T/C (second compound 1 µM, first compound 3 µM) of the same molecule?
Its viability, T/C is 20.1%.

How did the viability, T/C (compound 0.0316 µM) turn out when `Cc1nc(NC(=O)N2CCCC2C(N)=O)sc1-c1ccnc(C(C)(C)C(F)(F)F)c1` (configuration not stated) was run?
The viability, T/C was 84.4% and 80.2%.

And the viability, T/C (compound 0.1 µM)?
The viability, T/C was 73.3% and 72.6%.

What about the viability, T/C (compound 0.316 µM) of the same molecule?
Its viability, T/C is 58.8% and 56.2%.

What about the viability, T/C (compound 1 µM) of the same molecule?
The viability, T/C was 40.9% and 42%.

And the viability, T/C (compound 3.16 µM)?
The viability, T/C was 28.5% and 31.8%.

And the viability, T/C (compound 10 µM)?
The viability, T/C was 9.2% and 11.3%.

What about the pIC50 (curve of compound) of the same molecule?
The pIC50 was 6.23 and 6.22.

What does the source list for `CC(C)n1nc(-c2ccc3oc(N)nc3c2)c2c(N)ncnc21` + CC(C)NCC(C(=O)N1CCN(c2ncnc3c2C(C)CC3O)CC1)c1ccc(Cl)cc1?
pIC50 [1]: 8.19; pIC50 [2]: 8.22; pIC50 [3]: 8.45; pIC50 (curve of first compound, second compound 3.16 µM): 8.83; pIC50 (curve of first compound, second compound 10 µM): > 9.50; viability, T/C (second compound 0.1 µM, first compound 0.000316 µM): 87.8%; viability, T/C (second compound 0.1 µM, first compound 0.001 µM): 68.8%; viability, T/C (second compound 0.1 µM, first compound 0.00316 µM): 60.1%; viability, T/C (second compound 0.1 µM, first compound 0.01 µM): 47.6%; viability, T/C (second compound 0.1 µM, first compound 0.0316 µM): 29.3%; viability, T/C (second compound 0.1 µM, first compound 0.1 µM): 24.7%; viability, T/C (second compound 0.316 µM, first compound 0.000316 µM): 69.5%; viability, T/C (second compound 0.316 µM, first compound 0.001 µM): 65.1%; viability, T/C (second compound 0.316 µM, first compound 0.00316 µM): 58%; viability, T/C (second compound 0.316 µM, first compound 0.01 µM): 40.9%; viability, T/C (second compound 0.316 µM, first compound 0.0316 µM): 36.6%; viability, T/C (second compound 0.316 µM, first compound 0.1 µM): 21.3%; viability, T/C (second compound 1 µM, first compound 0.000316 µM): 58.6%; viability, T/C (second compound 1 µM, first compound 0.001 µM): 67.1%; viability, T/C (second compound 1 µM, first compound 0.00316 µM): 50.4%; viability, T/C (second compound 1 µM, first compound 0.01 µM): 34%; viability, T/C (second compound 1 µM, first compound 0.0316 µM): 28.6%; viability, T/C (second compound 1 µM, first compound 0.1 µM): 25.2%; viability, T/C (second compound 3.16 µM, first compound 0.000316 µM): 63.4%; viability, T/C (second compound 3.16 µM, first compound 0.001 µM): 52.4%; viability, T/C (second compound 3.16 µM, first compound 0.00316 µM): 44.1%; viability, T/C (second compound 3.16 µM, first compound 0.01 µM): 34.1%; viability, T/C (second compound 3.16 µM, first compound 0.0316 µM): 27.5%; viability, T/C (second compound 3.16 µM, first compound 0.1 µM): 18.5%; viability, T/C (second compound 10 µM, first compound 0.000316 µM): 48%; viability, T/C (second compound 10 µM, first compound 0.001 µM): 44%; viability, T/C (second compound 10 µM, first compound 0.00316 µM): 36.8%; viability, T/C (second compound 10 µM, first compound 0.01 µM): 25.7%; viability, T/C (second compound 10 µM, first compound 0.0316 µM): 17.1%; viability, T/C (second compound 10 µM, first compound 0.1 µM): 16.4%
